# Measured values: patent US5097013A, “Novel peptides possessing a macrophage chemotactic activity” (Kao Corporation, priority 1988, dated 1992)
# Square brackets hold non-standard residues; d marks the D form. Peptide text beside a SMILES is read from it. * marks the point of attachment. Fmoc = O=C(OCC1c2ccccc2-c2ccccc21)*; dNle = CCCC[C@@H](N)C(=O)O
# System: macrophage (peritoneal exudate cells)
# Assay: Macrophage chemotactic activity, 48 well chemotaxis chamber
# Assay type: cell-based, guinea pig
# Settings: Table 2; test described in Example 64; relative scale, Compound No. 1 = 100
# Procedure: Macrophage chemotactic activity in the examples was determined as follows.
# Peritoneal exudate cells (usually more than 95% were macrophage) collected from guinea pig in which liquid paraffin had previously been peritoneally injected 3 or 4 days before were used as macrophage in a cell concentration of 2×10^6 /ml.
# A sample which activity was to be determined was charged in lower wells of a 48 well chemotaxis chamber and a polycarbonate membrane having a pore size of 5 μm was put thereon, and the macrophage suspension was charged in upper wells followed by incubation at 37° C. for 90 minutes in a CO2 incubator. After the incubation, adherent cells on the non-chemotactic surface was removed, fixed and subjected to Giemsa staining and then to inclusion treatment. Then, the cells on the chemotactic surface were microscopically (×400) counted and the cell count was made MCF activity.
# The peptide synthesized in Example 5 was dissolved in 5 mM MgCl2 and the solution was suitably diluted with 0.5% FCS-containing Hanks' medium.
row,Molecule,Activity (macrophage chemotactic activity)
1,"CC(C)C[C@H](NC(=O)[C@H](Cc1c[nH]c2ccccc12)NC(=O)OCC1c2ccccc2-c2ccccc21)C(=O)NCC(=O)N[C@@H](CCCNC(=N)N)C(=O)N[C@@H](CCC(=O)O)C(=O)N[C@@H](CC(=O)O)C(=O)O [Compound 29, Fmoc-L-Trp-L-Leu-Gly-L-Arg-L-Glu-L-Asp-OH] (Fmoc-WLGRED-OH)",< 10
2,H-WLGRQDGSE-OH [Compound 2],80
3,H-WLG[dR]EDGSE-OH [Compound 14],80
4,H-KWLGREDGSE-OH [Compound 3],80
5,H-WAGRED-OH [Compound 42],< 10
6,H-WLGREDG-OH [Compound 22],< 10
7,H-WLGREDGSD-OH [Compound 4],10
8,H-FLGREDGSE-OH [Compound 7],< 10
9,H-WLGR[dE]DGSE-OH [Compound 41],< 10
10,"CC(C)C[C@H](NC(=O)[C@H](Cc1c[nH]c2ccccc12)NC(=O)OCC1c2ccccc2-c2ccccc21)C(=O)NCC(=O)N[C@@H](CCCNC(=N)N)C(=O)N[C@H](CCC(=O)O)C(=O)N[C@@H](CC(=O)O)C(=O)O [Compound 34, Fmoc-L-Trp-L-Leu-Gly-L-Arg-D-Glu-L-Asp-OH] (Fmoc-WLGR[dE]D-OH)",< 10
11,H-WLGREDGAE-OH [Compound 20],< 10
12,"CC(C)C[C@H](NC(=O)[C@H](Cc1c[nH]c2ccccc12)NC(=O)OCC1c2ccccc2-c2ccccc21)C(=O)NCC(=O)N[C@@H](CCCNC(=N)N)C(=O)N[C@@H](CCC(=O)O)C(=O)N[C@H](CC(=O)O)C(=O)O [Compound 39, Fmoc-L-Trp-L-Leu-Gly-L-Arg-L-Glu-D-Asp-OH] (Fmoc-WLGRE[dD]-OH)",10
13,"CC(C)C[C@@H](NC(=O)[C@H](Cc1c[nH]c2ccccc12)NC(=O)OCC1c2ccccc2-c2ccccc21)C(=O)NCC(=O)N[C@@H](CCCNC(=N)N)C(=O)N[C@@H](CCC(=O)O)C(=O)N[C@@H](CC(=O)O)C(=O)O [Compound 32, Fmoc-L-Trp-D-Leu-Gly-L-Arg-L-Glu-L-Asp-OH] (Fmoc-W[dL]GRED-OH)",< 10
14,H-L-Glu-L-Asp-Gly-L-Ser-L-Glu-OH [Compound 25],< 10
15,"CC(C)C[C@H](NC(=O)[C@@H](Cc1c[nH]c2ccccc12)NC(=O)OCC1c2ccccc2-c2ccccc21)C(=O)NCC(=O)N[C@@H](CCCNC(=N)N)C(=O)N[C@@H](CCC(=O)O)C(=O)N[C@@H](CC(=O)O)C(=O)O [Compound 30, Fmoc-D-Trp-L-Leu-Gly-L-Arg-L-Glu-L-Asp-OH] (Fmoc-[dW]LGRED-OH)",< 10
16,H-WGGREDGSE-OH [Compound 52],< 10
17,H-MWLGRED-OH [Compound 47],< 10
18,H-WPREDGSE-OH [Compound 10],< 10
19,H-W[dNle]GREDGSE-OH [Compound 15],< 10
20,"CC(C)C[C@H](NC(=O)[C@H](Cc1c[nH]c2ccccc12)NC(=O)OCC1c2ccccc2-c2ccccc21)C(=O)NCC(=O)N[C@@H](CCCNC(=N)N)C(=O)N[C@@H](CCC(=O)O)C(=O)N[C@@H](CC(=O)O)C(=O)NCC(=O)N[C@@H](CO)C(=O)N[C@@H](CCC(=O)O)C(=O)O [Compound 13, Fmoc-L-Trp-L-Leu-Gly-L-Arg-L-Glu-L-Asp-Gly-L-Ser-L-Glu-OH] (Fmoc-WLGREDGSE-OH)",< 10
21,H-L-Trp-L-Leu-Gly-L-Arg-L-Glu-OH [Compound 24],< 10
22,H-WVREDGSE-OH [Compound 50],< 10
23,"CC(C)C[C@H](NC(=O)[C@@H](N)Cc1c[nH]c2ccccc12)C(=O)NCC(=O)N[C@@H](CCCNC(=N)N)C(=O)O [Compound 27, H-L-Trp-L-Leu-Gly-L-Arg-OH] (H-WLGR-OH)",< 10

row,Molecule,Activity (macrophage chemotactic activity)
1,"H-WLGRQNGSQ-NH2 [Compound 11, H-L-Trp-L-Leu-Gly-L-Arg-L-Gln-L-Asn-Gly-L-Ser-L-Gln-NH2]",< 10
2,H-[dW]LGREDGSE-OH [Compound 16],< 10
3,H-WLGREDGLL-NH2 [Compound 46],< 10
4,H-WLGREDGS-OH [Compound 21],10
5,H-WLGKEDGSE-OH [Compound 8],< 10
6,H-L-Trp-L-AIa-Gly-L-Arg-L-Glu-L-Asp-Gly-L-Ser-L-Glu-NH2 [Compound 44],< 10
7,H-WLGREDGSQ-OH [Compound 28],< 10
8,"H-WLGRGDGSE-OH [Compound 48, H-L-Trp-L-Leu-Gly-L-Arg-Gly-L-Asp-Gly-L-Ser-L-Glu-OH]",< 10
9,H-WLGLEDGSE-OH [Compound 49],10
10,H-WLGREDGCE-OH [Compound 17],< 10
11,H-WAGREDGSE-OH [Compound 9],< 10
12,H-WLGREEGS-OH [Compound 38],< 10
13,H-WLGREDG[dS]E-OH [Compound 36],< 10
14,H-W[dL]GREDGSE-OH [Compound 37],< 10
15,H-WLIREDGSE-OH [Compound 6],< 10
16,H-WLGRENGSE-OH [Compound 5],< 10
17,H-LGREDGSE-OH [Compound 51],< 10
18,H-WLGYEDGSE-OH [Compound 18],50
19,"H-WLGREDGSE-OH [Compound 1, H-L-Trp-L-Leu-Gly-L-Arg-L-Glu-L-Asp-Gly-L-Ser-L-Glu-OH]",100
20,H-WIIREDGSE-OH [Compound 43],< 10
21,H-WLGREDGSE-NH2 [Compound 12],< 10
22,H-WLGRED-OH [Compound 23],10
23,H-WLGRED-NH2 [Compound 26],10

# Same assay, conditions: dissolved in 5 mM MgCl2, diluted with 0.5% FCS-containing Hanks' medium
row,Molecule,macrophage chemotactic activity (in words)
1,"H-WLGREDGSE-OH [Compound 1, H-L-Trp-L-Leu-Gly-L-Arg-L-Glu-L-Asp-Gly-L-Ser-L-Glu-OH]",high activities

# Same assay, conditions: relative activity, Table 1 (culture supernatant of hybridoma MCF-A51 = 100.0, medium alone 10.0); 3 × 10^-8 M; dissolved in 5 mM MgCl2, diluted with 0.5% FCS-containing Hanks' medium
row,Molecule,Macrophage Chemotactic Activity
1,"H-WLGREDGSE-OH [Compound 1, H-L-Trp-L-Leu-Gly-L-Arg-L-Glu-L-Asp-Gly-L-Ser-L-Glu-OH]",41.4
